The text below walks through data of paper PMC6908673, “Tuning the in vitro sensing and signaling properties of cyanobacterial PII protein by mutation of key residues” (Scientific Reports, 2019).

Broadly, the IC50 is the midpoint of a concentration-inhibition curve. A low value points to greater potency in that assay. The term Km denotes the substrate concentration at which the rate is half of its maximum. Usually stoichiometry N stands for a count of units in the complex or per binding partner.

One data set has as its target T1, SeNAGK (Synechococcus elongatus, UniProt Q6V1L5).
T1 construct: gene argB; His6-tagged, E. coli BL21(DE3), His-Trap; hexamer, about 194 kDa
T1 sequence (Q6V1L5 1-301): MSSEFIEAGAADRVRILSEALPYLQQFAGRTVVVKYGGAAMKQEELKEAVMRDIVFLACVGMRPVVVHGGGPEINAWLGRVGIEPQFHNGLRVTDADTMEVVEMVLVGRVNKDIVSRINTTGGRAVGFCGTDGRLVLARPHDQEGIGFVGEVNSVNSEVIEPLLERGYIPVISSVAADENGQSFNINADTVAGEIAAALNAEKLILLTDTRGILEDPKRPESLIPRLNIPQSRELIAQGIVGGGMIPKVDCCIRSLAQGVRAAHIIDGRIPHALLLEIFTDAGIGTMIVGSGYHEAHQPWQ
Kind of data set: coupled NAGK assay (pyruvate kinase/lactate dehydrogenase, NADH oxidation). Type of data set: biochemical. The text has this:
coupled NAGK assay (pyruvate kinase/lactate dehydrogenase, NADH oxidation) on SeNAGK | Arginine feedback inhibition of non-complexed SeNAGK occurred with a half maximal inhibitory concentration (IC50) of […]

A further data set deals with T2, PII-PipX complex (Synechococcus elongatus, UniProt P0A3F4).
T2 construct: gene glnB; Strep-tagged PII trimer pre-incubated with His6-tagged PipX; three PipX per PII trimer; both from E. coli
The experiment in a line: indirect SPR, His6-PipX on Ni-NTA chip. Type of data set: binding. Particulars: 10 mM Hepes pH 7.5, 150 mM NaCl, 1 mM MgCl2, 25 °C.

The next data set addresses T3, SeNAGK + SePII (Synechococcus elongatus, UniProt Q6V1L5).
T3 construct: gene argB; His6-tagged SeNAGK hexamer mixed with Strep-tagged SePII; two PII trimers sandwich one NAGK hexamer (WT); both from E. coli; with Nitrogen regulatory protein P-II
The experiment in a line: coupled NAGK assay (pyruvate kinase/lactate dehydrogenase, NADH oxidation). Type of data set: biochemical. Particulars: 25 µM arginine; 2-OG acts on PII site.

Substrate in data set [1]: CC(=O)N[C@@H](CCC(=O)O)C(=O)O
Described as above. Type of data set: biochemical, Synechococcus elongatus. Particulars: without PII; without arginine. The source says: coupled NAGK assay (pyruvate kinase/lactate dehydrogenase, NADH oxidation) on SeNAGK

Data set [2] deals with the molecule itself. The experiment in a line: SEC-MALS; PII mixed with NAGK (molar ratio 3:1 PII trimers to NAGK hexamers) 10 min at room temperature; Superose 6 Increase 10/300 GL; 100 mM Tris-HCl pH 7.8, 300 mM NaCl, 2 mM MgCl2, 2% glycerol; eluted fractions checked by SDS-PAGE. For orientation: In gel filtration, larger molecules generally elute earlier.
Substrate in data set [3]: CC(=O)N[C@@H](CCC(=O)O)C(=O)O
The experiment in a line: coupled NAGK assay (pyruvate kinase/lactate dehydrogenase, NADH oxidation). Conditions: with SePII (WT); without arginine. Type of data set: biochemical, Synechococcus elongatus. The text has this:
coupled NAGK assay (pyruvate kinase/lactate dehydrogenase, NADH oxidation) on SeNAGK + SePII

T2 sequence (P0A3F4 whole entry): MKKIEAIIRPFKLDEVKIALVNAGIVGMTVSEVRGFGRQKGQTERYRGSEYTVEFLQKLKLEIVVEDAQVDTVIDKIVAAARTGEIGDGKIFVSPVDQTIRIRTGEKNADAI
T2 sequence (Q7X386 1-89 partner): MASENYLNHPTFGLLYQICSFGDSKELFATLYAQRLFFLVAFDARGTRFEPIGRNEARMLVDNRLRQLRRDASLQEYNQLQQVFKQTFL
T3 sequence (P0A3F4 whole entry partner, one chain of several): as the sequence (P0A3F4 whole entry) above

In turn, `N=C(N)NCCC[C@H](N)C(=O)O` [arginine] had an IC50 against SeNAGK of 11 µM.

For the molecule `Nc1ncnc2c1ncn2[C@@H]1O[C@H](COP(=O)(O)OP(=O)(O)O)[C@@H](O)[C@H]1O` [ADP], the “indirect SPR, His6-PipX on Ni-NTA chip” value on PII-PipX complex (1 mM ADP) was “strong positive effect of ADP on the interaction of PII (WT) with PipX”.

With `O=C(O)CCC(=O)C(=O)O` [2-OG], at SeNAGK + SePII, the “coupled NAGK assay (pyruvate kinase/lactate dehydrogenase, NADH oxidation)” value was “complex of SeNAGK-SePII (WT) showed the typical inhibitory effect upon 2-OG addition”. Moreover, the “indirect SPR, His6-PipX on Ni-NTA chip” value at PII-PipX complex (1 mM 2-OG with 1 mM ATP) is on record as 2-OG in presence of ATP impaired PipX-PII (WT) complex formation.

B1: SeNAGK (Synechococcus elongatus PCC 7942 = FACHB-805) (protein)
chain: T1 sequence (Q6V1L5 1-301)
notes: His6-tagged, E. coli BL21(DE3), His-Trap; hexamer, about 194 kDa
Consider B1, for which the Km in data set [1] was 5.1 ± 0.9 mM.

B2: SeNAGK, N-acetyl-L-glutamate kinase from S. elongatus PCC7942, His6-tagged (enzyme)
chain: T1 sequence (Q6V1L5 1-301)
notes: N-acetyl-L-glutamate kinase (NAGK) of Synechococcus elongatus PCC 7942; hexamer; also called His6-NAGK
On to B2, for which the “stoichiometry N” value in data set [2] amounted to 6.

B3: SeNAGK + SePII (Synechococcus elongatus PCC 7942 = FACHB-805) (protein)
chain: T1 sequence (Q6V1L5 1-301)
notes: His6-tagged SeNAGK hexamer mixed with Strep-tagged SePII; two PII trimers sandwich one NAGK hexamer (WT); both from E. coli; with Nitrogen regulatory protein P-II
Take B3: in data set [3], the Km turned out to be 2.9 ± 0.6 mM.
